Reference: US20220142888A1, “COMPOSITION FOR IMPROVING SKIN CONDITIONS” (NEOPHARM CO., LTD., priority 2020, published 2022)

Legend:
[1] = system: human β-defensin-2 (hBD-2); test: Expression of antimicrobial peptide BD-2 in human epidermal keratinocytes, real-time PCR; type: cell-based; conditions: NHEKs, 1% sample (in H2O), 24 hours, gene level, FIG. 2
Experimental: (§1) In order to confirm the effect of enhancing the skin immunity and defense of each of Examples and Comparative Example of the present invention, the activities of peptide LL-37 (cathelicidin-related antimicrobial peptide (CAMP)), human β-defensin-2 (hBD-2), and human β-defensin-3 (hBD-3) having antimicrobial efficacy were confirmed.
(§2) In order for the confirmation, human epidermal keratinocytes (NHEKs) were dispensed into a 96-well plate, and the cells were cultured under cell culture conditions for 24 hours. Thereafter, the cells were treated with a control, DMSO, and a 1% sample (in H2O) of each of Examples and Comparative Example, and the cells were additionally cultured for 24 hours. A real-time PCR method was performed to determine LL-37, BD-2, and BD-3 at a gene-level. The test procedure is as follows.
(§3) SuperPrep™ cell lysis and RT Kit for qPCR (TOYOBO, SCQ-101) were used for RNA isolation and cDNA synthesis. The cells from which the medium was removed were washed once with phosphate-buffered saline (PBS), 50 μl of a cell lysis mixture (including gDNA remover) was added and reacted for 5 minutes, and then, a stop solution was added. […] QuantiTect primer assays of Qiagen were used in the experiment as a primer, and the expression levels of LL-37, BD-2, and BD-3 in the samples were quantified as GADPH and compared with each other. […]

[2] = system: human β-defensin-3 (hBD-3); test: Expression of antimicrobial peptide BD-3 in human epidermal keratinocytes, real-time PCR; type: cell-based; conditions: NHEKs, 1% sample (in H2O), 24 hours, gene level, FIG. 3
Experimental: as §1, §2, §3

[3] = system: LL-37 (cathelicidin-related antimicrobial peptide (CAMP)); test: Expression of antimicrobial peptide LL-37 in human epidermal keratinocytes, real-time PCR; type: cell-based; conditions: NHEKs, 1% sample (in H2O), 24 hours, gene level, FIG. 1
Experimental: as §1, §2, §3

desmoglein1 (DSG1) gene = test: Expression of desmoglein1 (DSG1) gene in UVB-irradiated NHEKs, Taqman real-time PCR; type: cell-based, human; conditions: UVB 25 mJ/cm^2, 10 nM sample, 4th day of culture, FIG. 6
Experimental: In order to confirm the effect of strengthening the skin barrier of each of Examples and Comparative Example of the present invention, an expression level of DSG1 gene as an intercellular binding factor was confirmed.
Specifically, normal human epidermal keratinocytes (NHEKs) were cultured in a 6-well plate incubator. After 24 hours, the keratinocyes were washed with phosphate-buffered saline (PBS), irradiation with UVB (25 mJ/cm^2) was performed, a 10 nM sample of each of Examples and Comparative Example was added to the NHEK culture medium, and then, culture was performed. The cells were harvested on the 4th day of culture, RNA was separated, cDNA was synthesized by a reverse transcriptional polymerase chain reaction (RT-PCR), Taqman real-time PCR was performed using the synthesized cDNA, and then, the expression level of the DSG1 gene as a keratinocyte differentiation marker was measured.

filaggrin = test: Expression level of filaggrin in keratinocytes, real-time PCR; type: cell-based; conditions: 24 hours, versus untreated control, FIG. 5
Experimental: In order to measure the effect of promoting the expression of moisturizing factors of each of Examples and Comparative Example of the present invention, the expression levels of filaggrin and loricrin were measured.
Specifically, keratinocytes purchased from Invitrogen Corporation were cultured in EpiLife (keratinocyte growth medium) containing a supplement (human keratinocyte growth supplement (HKGS)) for a predetermined time, and then, the cells were subcultured three times and then used. The keratinocytes which were subcultured three times were cultured to a confluence of 70 to 80% in a 6-well plate, each of the wells was separately treated with each of the samples, and then, the keratinocytes were cultured for a total of 24 hours. RNA of the keratinocytes was extracted from the cultured cells using easy BLUE, and then, cDNA synthesis was performed using SuperScript reverse transcriptase III kit. Real-time PCR for comparing the genes was performed using 2× TaqMan universal PCR mixture (10 μl), 20× TaqMan expression assay mix (1 μl), cDNA (50 ng), and a primer (Filaggrin: Hs00856927_g1*, Loricrin: Hs01894962_s1*) and a 7500 Fast Real-Time PCR system. In addition, a sample treated with 10 μM IGF-1 was used as a positive control group, and a control that was not treated with the sample was used as a comparison group.

SMILES	expression level of antimicrobial peptide BD-2 relative to that in Example 2 [1] [%]	expression level of antimicrobial peptide BD-3 relative to that in Example 2 [2] [%]	expression level of antimicrobial peptide LL-37 relative to that in Example 2 [3] [%]	expression level of desmoglein1, increase relative to the expression level in the UVB treatment group (desmoglein1 (DSG1) gene) [times]	expression level of filaggrin, increase relative to the expression level in the control (filaggrin) [times]
CCCCCC(=O)N[C@@H](Cc1ccc(O)cc1)C(=O)OC [Comparative Example 1, Defensamide]	33	40	40		
CCCCCCCCCC(=O)NC(CO)C(=O)OCC (stereo not shown) [Example 1, N-(1-oxodecyl)serine ethyl ester]				≥ 4.1	≥ 4.3
CCCCCCCCCC(=O)NC(CO)C(=O)OC (stereo not shown) [Example 2, N-(1-oxodecyl)serine methyl ester]				≥ 4.5	≥ 3.8
